In brackets after ≈: the same amount, converted by molar mass. Each block holds one compound with its values, some of them ahead of it. Activity calls are given as the source filed them. The calls are words filed in the database; no cut-off is given here.
Key:
[1] = Inhibition of NF-kappaB activation transfected in PMA-stimulated HEK293 cells after 16 hrs by luciferase reporter gene assay; type: cell-based; conditions: HEK293, 16 h
[2] = biological target: RAF proto-oncogene serine/threonine-protein kinase (Homo sapiens) (UniProt P04049); assay: Inhibition of raf kinase at 10 uM
[3] = Metabolic stability in human liver microsomes assessed as compound remaining at 1 uM after 1 hr by LC/MS/MS analysis; type: ADME, Microsome; conditions: read-out: Stability
[4] = Drug level in mouse blood at 30 mg/kg, ip after 0.5 hrs by LC/MS analysis; type: ADME, organism-based; design: dose 30 mg/kg, route intraperitoneal; conditions: whole blood, read-out: Drug uptake
[5] = biological target: T1, Serine/threonine-protein kinase tousled-like 1 (Homo sapiens) (UniProt Q9UKI8); assay: Inhibition of TLK1 at 10 uM
T1 sequence (whole entry): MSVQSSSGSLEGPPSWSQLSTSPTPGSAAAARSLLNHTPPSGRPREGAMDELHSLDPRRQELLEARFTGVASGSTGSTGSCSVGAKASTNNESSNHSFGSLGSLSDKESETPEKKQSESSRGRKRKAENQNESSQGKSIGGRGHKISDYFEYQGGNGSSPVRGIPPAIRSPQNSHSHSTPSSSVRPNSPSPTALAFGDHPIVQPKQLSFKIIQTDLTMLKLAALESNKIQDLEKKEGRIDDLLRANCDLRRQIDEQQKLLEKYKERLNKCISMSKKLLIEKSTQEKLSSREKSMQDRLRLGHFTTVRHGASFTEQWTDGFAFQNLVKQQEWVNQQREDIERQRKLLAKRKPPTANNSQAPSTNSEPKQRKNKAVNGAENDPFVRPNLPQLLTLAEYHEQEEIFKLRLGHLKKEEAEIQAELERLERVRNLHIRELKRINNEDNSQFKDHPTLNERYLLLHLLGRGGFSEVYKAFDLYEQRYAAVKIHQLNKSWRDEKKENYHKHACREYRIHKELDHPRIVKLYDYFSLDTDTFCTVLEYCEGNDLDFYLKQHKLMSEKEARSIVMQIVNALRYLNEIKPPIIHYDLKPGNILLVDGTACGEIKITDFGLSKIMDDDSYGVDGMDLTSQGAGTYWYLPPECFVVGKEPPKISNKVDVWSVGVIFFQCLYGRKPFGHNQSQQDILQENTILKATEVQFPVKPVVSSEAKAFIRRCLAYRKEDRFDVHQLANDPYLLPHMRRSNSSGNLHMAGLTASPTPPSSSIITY

[6] = Aqueous solubility at pH 7.4 after 18 hrs by UV kinetic solubility method; type: physicochemical; conditions: aqueous medium
[7] = Permeability at 50 uM at pH 7.4 by PAMPA; type: ADME; conditions: pH 7.4, 50 µM
[8] = biological target: Protein kinase C beta type (Homo sapiens) (UniProt P05771); assay: Inhibition of PKCbeta up to 8 uM
[9] = biological target: Protein kinase C theta type (Homo sapiens) (UniProt Q04759); assay: Inhibition of PKCtheta up to 8 uM
[10] = Drug level in mouse blood at 50 mg/kg, ip after 0.5 hrs by LC/MS analysis; type: ADME, organism-based; design: dose 50 mg/kg, route intraperitoneal; conditions: whole blood, read-out: Drug uptake
[11] = biological target: Tyrosine-protein kinase JAK2 (Homo sapiens) (UniProt O60674); assay: Inhibition of JAK2 at 10 uM
[12] = Cytotoxicity against human Fa2N-4 cells after 24 hrs by ATP-lite 1-step assay; type: cell-based; conditions: read-out: LD50
[13] = Metabolic stability in mouse liver microsomes assessed as compound remaining at 1 uM after 1 hr by LC/MS/MS analysis; type: ADME, Microsome; conditions: read-out: Stability
[14] = Drug level in mouse blood at 10 mg/kg, ip after 3 hrs by LC/MS analysis; type: ADME, organism-based; design: dose 10 mg/kg, route intraperitoneal; conditions: whole blood, read-out: Drug uptake
[15] = Permeability at 50 uM at pH 5 by PAMPA; type: ADME; conditions: pH 5, 50 µM
[16] = Permeability at 50 uM at pH 6.2 by PAMPA; type: ADME; conditions: pH 6.2, 50 µM
[17] = Drug level in mouse blood at 30 mg/kg, ip after 3 hrs by LC/MS analysis; type: ADME, organism-based; design: dose 30 mg/kg, route intraperitoneal; conditions: whole blood, read-out: Drug uptake
[18] = Aqueous solubility at pH 6.2 after 18 hrs by UV kinetic solubility method; type: physicochemical; conditions: aqueous medium
[19] = biological target: T2, Inhibitor of nuclear factor kappa-B kinase subunit beta (Homo sapiens) (UniProt O14920); assay: Inhibition of IKK-beta up to 8 uM
T2 sequence (whole entry): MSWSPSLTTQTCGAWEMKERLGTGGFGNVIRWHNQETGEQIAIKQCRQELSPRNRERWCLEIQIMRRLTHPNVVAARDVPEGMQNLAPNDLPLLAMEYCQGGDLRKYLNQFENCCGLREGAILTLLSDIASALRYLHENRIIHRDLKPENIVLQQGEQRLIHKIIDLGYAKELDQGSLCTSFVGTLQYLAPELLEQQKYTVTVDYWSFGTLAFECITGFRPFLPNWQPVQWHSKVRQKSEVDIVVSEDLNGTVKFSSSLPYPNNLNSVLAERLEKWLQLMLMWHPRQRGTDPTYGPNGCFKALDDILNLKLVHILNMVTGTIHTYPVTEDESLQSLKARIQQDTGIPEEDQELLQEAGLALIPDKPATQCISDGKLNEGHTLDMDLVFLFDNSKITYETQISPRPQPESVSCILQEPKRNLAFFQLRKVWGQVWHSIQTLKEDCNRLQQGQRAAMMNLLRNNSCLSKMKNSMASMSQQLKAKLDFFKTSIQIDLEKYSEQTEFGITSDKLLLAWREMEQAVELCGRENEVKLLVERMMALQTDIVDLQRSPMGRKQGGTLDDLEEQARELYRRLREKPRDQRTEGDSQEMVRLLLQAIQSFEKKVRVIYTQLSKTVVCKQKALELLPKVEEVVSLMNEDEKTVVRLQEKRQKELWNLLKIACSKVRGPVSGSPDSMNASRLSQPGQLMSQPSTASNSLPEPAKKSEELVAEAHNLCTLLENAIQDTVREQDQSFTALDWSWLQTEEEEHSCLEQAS

[20] = Drug level in mouse blood at 10 mg/kg, ip after 0.5 hrs by LC/MS analysis; type: ADME, organism-based; design: dose 10 mg/kg, route intraperitoneal; conditions: whole blood, read-out: Drug uptake
[21] = system: HEK293; assay: Inhibition of NF-kappaB activation transfected in TNF-alpha-stimulated HEK293 cells after 16 hrs by luciferase reporter gene assay; type: cell-based
[22] = Drug level in mouse blood at 50 mg/kg, ip after 3 hrs by LC/MS analysis; type: ADME, organism-based; design: dose 50 mg/kg, route intraperitoneal; conditions: whole blood, read-out: Drug uptake
[23] = Aqueous solubility at pH 5 after 18 hrs by UV kinetic solubility method; type: physicochemical; conditions: aqueous medium
[24] = Cytotoxicity against human HEK293 cells after 24 hrs by ATP-lite 1-step assay; type: cell-based; conditions: read-out: LD50
[25] = Metabolic stability in mouse liver microsomes assessed as compound remaining at 10 uM after 1 hr by LC/MS/MS analysis; type: ADME, Microsome; conditions: read-out: Stability
[26] = Metabolic stability in human liver microsomes assessed as compound remaining at 10 uM after 1 hr by LC/MS/MS analysis; type: ADME, Microsome; conditions: read-out: Stability

RAF proto-oncogene serine/threonine-protein kinase (Homo sapiens), sequence (P04049 whole entry): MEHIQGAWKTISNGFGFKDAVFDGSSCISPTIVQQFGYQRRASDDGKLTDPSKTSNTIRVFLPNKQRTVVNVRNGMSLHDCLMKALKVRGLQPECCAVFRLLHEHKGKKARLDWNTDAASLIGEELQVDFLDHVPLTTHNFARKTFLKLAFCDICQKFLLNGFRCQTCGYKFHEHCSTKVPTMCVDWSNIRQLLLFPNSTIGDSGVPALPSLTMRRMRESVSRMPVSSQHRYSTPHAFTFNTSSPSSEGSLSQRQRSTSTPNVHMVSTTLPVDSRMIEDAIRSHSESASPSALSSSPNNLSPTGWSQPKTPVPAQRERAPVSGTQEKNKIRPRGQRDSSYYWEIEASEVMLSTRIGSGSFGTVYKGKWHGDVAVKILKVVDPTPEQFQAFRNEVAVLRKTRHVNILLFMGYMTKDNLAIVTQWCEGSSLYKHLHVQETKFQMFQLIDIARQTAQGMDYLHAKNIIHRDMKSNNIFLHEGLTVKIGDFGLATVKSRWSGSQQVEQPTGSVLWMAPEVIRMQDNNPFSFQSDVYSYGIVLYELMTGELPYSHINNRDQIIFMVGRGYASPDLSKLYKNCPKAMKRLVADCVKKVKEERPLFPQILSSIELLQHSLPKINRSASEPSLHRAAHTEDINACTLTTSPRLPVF
Tyrosine-protein kinase JAK2 (Homo sapiens), sequence (O60674 whole entry): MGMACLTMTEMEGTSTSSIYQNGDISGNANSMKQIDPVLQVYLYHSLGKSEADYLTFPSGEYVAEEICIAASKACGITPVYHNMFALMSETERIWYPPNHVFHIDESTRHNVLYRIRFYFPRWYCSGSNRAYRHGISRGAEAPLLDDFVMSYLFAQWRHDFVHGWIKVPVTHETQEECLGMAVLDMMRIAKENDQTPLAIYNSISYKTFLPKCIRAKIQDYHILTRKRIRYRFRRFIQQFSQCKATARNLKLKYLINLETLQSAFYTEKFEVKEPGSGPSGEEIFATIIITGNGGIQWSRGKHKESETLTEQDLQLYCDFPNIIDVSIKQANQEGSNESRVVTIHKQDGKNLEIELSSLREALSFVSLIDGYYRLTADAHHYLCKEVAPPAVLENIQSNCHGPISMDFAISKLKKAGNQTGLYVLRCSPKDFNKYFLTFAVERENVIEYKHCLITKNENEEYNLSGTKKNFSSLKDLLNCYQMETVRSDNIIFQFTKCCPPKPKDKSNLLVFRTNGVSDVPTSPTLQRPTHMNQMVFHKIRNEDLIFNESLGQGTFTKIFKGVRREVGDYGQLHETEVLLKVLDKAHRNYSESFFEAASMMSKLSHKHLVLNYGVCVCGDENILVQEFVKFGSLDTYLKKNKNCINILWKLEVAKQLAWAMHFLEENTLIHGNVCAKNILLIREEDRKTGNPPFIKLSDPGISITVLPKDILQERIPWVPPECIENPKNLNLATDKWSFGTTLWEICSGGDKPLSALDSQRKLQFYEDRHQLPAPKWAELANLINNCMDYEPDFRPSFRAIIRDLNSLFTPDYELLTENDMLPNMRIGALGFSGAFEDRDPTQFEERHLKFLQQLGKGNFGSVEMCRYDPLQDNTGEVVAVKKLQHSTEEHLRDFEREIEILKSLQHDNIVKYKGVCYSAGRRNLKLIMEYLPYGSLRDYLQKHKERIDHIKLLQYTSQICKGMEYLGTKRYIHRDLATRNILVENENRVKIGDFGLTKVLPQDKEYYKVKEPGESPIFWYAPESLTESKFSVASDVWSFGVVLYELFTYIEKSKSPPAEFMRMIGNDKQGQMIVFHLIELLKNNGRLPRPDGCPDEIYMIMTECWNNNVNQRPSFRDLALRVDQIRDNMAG
Protein kinase C theta type (Homo sapiens), sequence (Q04759 whole entry, looked up): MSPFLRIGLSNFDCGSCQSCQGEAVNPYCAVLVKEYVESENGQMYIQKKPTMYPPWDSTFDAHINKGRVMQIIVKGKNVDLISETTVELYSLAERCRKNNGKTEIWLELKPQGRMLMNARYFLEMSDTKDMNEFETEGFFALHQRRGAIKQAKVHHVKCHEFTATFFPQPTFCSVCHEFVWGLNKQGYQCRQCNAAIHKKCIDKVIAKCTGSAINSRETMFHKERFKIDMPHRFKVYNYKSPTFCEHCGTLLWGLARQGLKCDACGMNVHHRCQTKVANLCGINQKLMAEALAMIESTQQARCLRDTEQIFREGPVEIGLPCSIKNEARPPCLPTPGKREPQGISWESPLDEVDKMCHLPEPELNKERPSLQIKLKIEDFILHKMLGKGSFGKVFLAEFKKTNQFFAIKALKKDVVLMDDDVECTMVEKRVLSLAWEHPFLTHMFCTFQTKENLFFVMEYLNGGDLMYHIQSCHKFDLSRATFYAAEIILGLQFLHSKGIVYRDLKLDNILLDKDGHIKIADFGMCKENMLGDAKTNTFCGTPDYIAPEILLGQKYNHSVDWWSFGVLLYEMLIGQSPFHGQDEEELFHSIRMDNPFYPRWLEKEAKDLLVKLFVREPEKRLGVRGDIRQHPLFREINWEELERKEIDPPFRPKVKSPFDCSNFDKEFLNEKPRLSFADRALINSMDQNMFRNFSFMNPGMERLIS
Protein kinase C beta type (Homo sapiens), sequence (P05771 2-671 limits assumed): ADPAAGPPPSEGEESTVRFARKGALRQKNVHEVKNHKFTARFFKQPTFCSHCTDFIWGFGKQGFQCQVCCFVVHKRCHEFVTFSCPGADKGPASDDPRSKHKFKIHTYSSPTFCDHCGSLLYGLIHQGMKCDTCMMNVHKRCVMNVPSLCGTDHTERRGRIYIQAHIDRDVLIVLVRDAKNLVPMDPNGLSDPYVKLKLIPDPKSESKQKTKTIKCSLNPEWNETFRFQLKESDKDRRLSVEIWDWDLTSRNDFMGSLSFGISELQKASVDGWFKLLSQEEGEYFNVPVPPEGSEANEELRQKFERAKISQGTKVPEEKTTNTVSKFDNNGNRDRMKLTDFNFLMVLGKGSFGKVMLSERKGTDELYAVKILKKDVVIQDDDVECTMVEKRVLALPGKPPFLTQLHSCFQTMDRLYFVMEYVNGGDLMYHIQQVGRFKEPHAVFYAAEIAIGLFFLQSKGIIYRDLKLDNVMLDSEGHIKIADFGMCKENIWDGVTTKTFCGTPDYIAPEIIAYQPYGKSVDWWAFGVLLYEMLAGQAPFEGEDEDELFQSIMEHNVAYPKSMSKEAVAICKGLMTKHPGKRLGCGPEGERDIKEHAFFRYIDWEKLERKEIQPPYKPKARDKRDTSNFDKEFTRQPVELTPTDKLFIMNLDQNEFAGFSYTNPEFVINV

- IC50 [1]: 900 nM
Compound: CC(C)(C)c1cc(C(=O)Cn2c(NCCCO)nc3ccc(-c4ccccc4)cc32)cc(C(C)(C)C)c1O

- IC50 [1]: > 8000 nM
Compound: CC(C)(C)c1cc(C(=O)Cn2c(NCCCO)nc3ccc([N+](=O)[O-])cc32)cc(C(C)(C)C)c1O

- IC50 [1]: 800 nM
Compound: CCCCNc1nc2cc(C)c(C)cc2n1CC(=O)c1cc(C(C)(C)C)c(O)c(C(C)(C)C)c1

- IC50 [1]: 300 nM
Compound: COCCCNc1nc2cc(C)c(C)cc2n1CC(=O)c1cc(C(C)(C)C)c(O)c(C(C)(C)C)c1

- IC50 [1]: 3000 nM
Compound: CC(C)(C)c1cc(C(=O)Cn2c(NCCCO)nc3cc(Br)ccc32)cc(C(C)(C)C)c1O

- IC50 [1]: 2000 nM
Compound: CC(C)(C)c1cc(C(=O)Cn2c(NCCCO)nc3cc([N+](=O)[O-])ccc32)cc(C(C)(C)C)c1O

- IC50 [1]: 11000 nM
Compound: Cc1cc2nc(NCCCO)n(CC(=O)c3cccc(C(C)(C)C)c3)c2cc1C

- IC50 [1]: 1800 nM
Compound: CC(C)(C)c1cc(C(=O)Cn2c(NCCCO)nc3cc(C(=O)c4ccccc4)ccc32)cc(C(C)(C)C)c1O

- IC50 [1]: 400 nM
Compound: CC(C)(C)c1cc(C(=O)Cn2c(NCCCO)nc3ccc(N)cc32)cc(C(C)(C)C)c1O

- IC50 [1]: 13000 nM
Compound: Cc1cc2nc(N3CCC(O)CC3)n(CC(=O)c3cc(C(C)(C)C)c(O)c(C(C)(C)C)c3)c2cc1C

- IC50 [1]: 300 nM
Compound: CNc1nc2cc(C)c(C)cc2n1CC(=O)c1cc(C(C)(C)C)c(O)c(C(C)(C)C)c1

- IC50 [1]: 6000 nM
Compound: CC(C)(C)c1cc(C(=O)Cn2c(NCCCO)nc3ccc(Br)cc32)cc(C(C)(C)C)c1O

Compound: Cc1cc2nc(NCCCO)n(CC(=O)c3cc(C(C)(C)C)c(O)c(C(C)(C)C)c3)c2cc1C
- inhibition [2]: 57%
- remaining at 1 h, 1 µM [3]: 26%
- concentration at 0.5 h [4]: 8.28 µM
- inhibition [5]: 70%
- solubility kinetic at 18 h [6]: 0.7 µg/mL (≈ 1.5 µM)
- permeability [7]: 441 ×10⁻⁶ cm/s
- inhibition [8]: inactive
- inhibition [9]: inactive
- concentration at 0.5 h [10]: 5.93 µM
- inhibition [11]: 53%
- CC50 at 24 h [12]: 47000 nM
- remaining at 1 h, 1 µM [13]: 0.5%
- concentration at 3 h [14]: 0.5 µM
- permeability [15]: 299 ×10⁻⁶ cm/s
- permeability [16]: 710 ×10⁻⁶ cm/s
- concentration at 3 h [17]: 3.64 µM
- solubility kinetic at 18 h [18]: 0.5 µg/mL (≈ 1.07 µM)
- inhibition [19]: inactive
- concentration at 0.5 h [20]: 1.81 µM
- inhibition [21]: inactive
- concentration at 3 h [22]: 6.96 µM
- solubility kinetic at 18 h [23]: 42 µg/mL (≈ 90.2 µM)
- CC50 at 24 h [24]: 40000 nM
- remaining at 1 h, 10 µM [25]: 19%
- remaining at 1 h, 10 µM [26]: 55%

- IC50 [1]: 800 nM
Compound: CC(C)(C)c1cc(C(=O)Cn2c(NCCCO)nc3cc(N)ccc32)cc(C(C)(C)C)c1O

- IC50 [1]: 16000 nM
Compound: Cc1cc2nc(NCCCO)n(CC(=O)c3cccc(OC(C)(C)C)c3)c2cc1C

- IC50 [1]: 100 nM
Compound: Cc1cc2nc(NCCCO)n(CC(=O)c3cc(C(C)(C)C)cc(C(C)(C)C)c3)c2cc1C

- IC50 [1]: 600 nM
Compound: CC(C)(C)c1cc(C(=O)Cn2c(NCCCO)nc3cc(-c4ccccc4)ccc32)cc(C(C)(C)C)c1O

- IC50 [1]: 100 nM
Compound: Cc1cc2nc(NC3CCC(O)CC3)n(CC(=O)c3cc(C(C)(C)C)c(O)c(C(C)(C)C)c3)c2cc1C (configuration not stated)
